Source: patent US20250188075A1, “SUBSTITUTED HETEROCYCLIC CSNK1 INHIBITORS” (The Broad Institute, Inc., priority 2022, published 2025)
Where two headings read alike, the source gives them in different places.

Tests used:
human CSNK1A1 = human CSNK1A1 (Homo sapiens (Human), UniProt P48729); assay: CSNK1A1 assay (ADP-Glo, 1 μM ATP); type: biochemical; details: median, read-out: CSNK1A1 Low ATP IC50 [mol/l] (median)
Protocol: CSNK1A1-inhibitory activity of compounds of the present invention in presence of 1 μM adenosine-tri-phosphate (ATP) was quantified employing the CSNK1A1 assay as described in the following paragraphs. In essence, the enzyme activity is measured by quantification of the adenosine-di-phosphate (ADP), which is generated as a co-product of the enzyme reaction, via the “ADP-Glo™ Kinase Assay” kit from the company Promega. This detection system works as follows: In a first step the ATP not consumed in the kinase reaction is quantitatively converted to CAMP employing an adenylate cyclase (“ADP-Glo-reagent”), then the adenylate cyclase is stopped and the ADP generated in the kinase reaction converted to ATP which generates in a luciferase-based reaction a glow-luminescence signal (“Kinase Detection Reagent”).
(§1) Recombinant fusion protein of N-terminal Glutathion-S-Transferase (GST) and full-length human CSNK1A1, expressed by baculovirus infected insect cells and purified via Glutathion affinity chromatography, was purchased from Life Technologies (product no. PV4174) and used as enzyme. As substrate for the kinase reaction the biotinylated peptide biotin-Ahx-KRRRAL-pS-VASLPGL (C-terminus in amide form) was used which can be purchased e.g. from the company Biosyntan (Berlin-Buch, Germany).
For the assay 50 nl of a 100-fold concentrated solution of the test compound in DMSO was pipetted into a white 1536-well microtiter plate (Greiner Bio-One, Frickenhausen, Germany), 2 μL of a solution of CSNK1A1 in aqueous assay buffer [50 mM HEPES pH 7.5, 10% (v/v) glycerol, 10 mM MgCl2, 50 mM NaCl, 1 mM dithiothreitol, 0.01% (w/v) bovine serum albumin, 0.01% (v/v) Triton X-100] were added and the mixture was incubated for 15 min at 22° C. to allow pre-binding of the test compounds to the enzyme before the start of the kinase reaction. Then the kinase reaction was started by the addition of 3 μL of a solution of ATP (1.67 μM=>final conc. in the 5 μL assay volume is 1 μM) and peptide substrate (50 μM=>final conc. in the 5 μL assay volume is 30 μM) in assay buffer and the resulting mixture was incubated for a reaction time of 30 min at 22° C. The concentration of CSNK1A1 was adjusted depending of the activity of the enzyme lot and was chosen appropriate to have the assay in the linear range, a typical concentrations are about 0.0375 ng/μL. The reaction was stopped by the addition of 2.5 μL of “ADP-Glo-reagent” (1:1.5 fold diluted with water) and the resulting mixture was incubated at 22° C. for 1 h to convert the ATP not consumed in the kinase reaction completely to CAMP. Subsequently 2.5 μL of the “kinase detection reagent” (1.2 fold more concentrated than recommended by the producer) were added, the resulting mixture was incubated at 22° C. for 1 h and then the luminescence measured with a suitable measurement instrument (e.g. Viewlux™ from Perkin-Elmer). The amount of emitted light was taken as a measure for the amount of ADP generated and thereby for the activity of the CSNK1A1.
(§2) The data were normalised (enzyme reaction without inhibitor=0% inhibition, all other assay components but no enzyme=100% inhibition).

human CSNK1G3 = human CSNK1G3 (Homo sapiens (Human), UniProt Q9Y6M4); assay: CSNK1G3 assay (ADP-Glo); type: biochemical; details: median, read-out: CSNK1G IC50 [mol/l] (median)
Sequence of human CSNK1G3 (Q9Y6M4 whole entry): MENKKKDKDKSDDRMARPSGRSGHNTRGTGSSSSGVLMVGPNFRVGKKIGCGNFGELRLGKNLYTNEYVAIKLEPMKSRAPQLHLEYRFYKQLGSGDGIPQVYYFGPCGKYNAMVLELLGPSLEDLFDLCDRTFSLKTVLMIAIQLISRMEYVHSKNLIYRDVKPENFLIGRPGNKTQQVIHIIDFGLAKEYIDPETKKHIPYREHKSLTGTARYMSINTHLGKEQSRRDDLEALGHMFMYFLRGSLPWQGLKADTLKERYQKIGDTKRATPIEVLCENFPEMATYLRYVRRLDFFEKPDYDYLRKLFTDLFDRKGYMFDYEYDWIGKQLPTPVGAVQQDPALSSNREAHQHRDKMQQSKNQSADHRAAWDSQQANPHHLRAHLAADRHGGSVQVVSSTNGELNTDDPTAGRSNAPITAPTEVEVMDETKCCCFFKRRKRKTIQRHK
Protocol: CSNK1G3-inhibitory activity of compounds of the present invention in presence of 1 μM adenosine-tri-phosphate (ATP) was quantified employing the CSNK1G3 assay as described in the following paragraphs. In essence, the enzyme activity is measured by quantification of the adenosine-di-phosphate (ADP), which is generated as a co-product of the enzyme reaction, via the “ADP-Glo™ Kinase Assay” kit from the company Promega. This detection system works as follows: In a first step the ATP not consumed in the kinase reaction is quantitatively converted to CAMP employing an adenylate cyclase (“ADP-Glo-reagent”), then the adenylate cyclase is stopped and the ADP generated in the kinase reaction converted to ATP which generates in a luciferase-based reaction a glow-luminescence signal (“Kinase Detection Reagent”).
as §1, with “CSNK1G3,” for “CSNK1A1,”, “PV3838)” for “PV4174)”
For the assay 50 nl of a 100 fold concentrated solution of the test compound in DMSO was pipetted into a white 1536-well microtiter plate (Greiner Bio-One, Frickenhausen, Germany), 2 μL of a solution of CSNK1G3 in aqueous assay buffer [50 mM HEPES pH 7.5, 10% (v/v) glycerol, 10 mM MgCl2, 50 mM NaCl, 1 mM dithiothreitol, 0.01% (w/v) bovine serum albumin, 0.01% (v/v) Triton X-100] were added and the mixture was incubated for 15 min at 22° C. to allow pre-binding of the test compounds to the enzyme before the start of the kinase reaction. Then the kinase reaction was started by the addition of 3 μL of a solution of ATP ([…]=>final conc. in the 5 μL assay volume is 1 M) and peptide substrate (50 μM=>final conc. in the 5 μL assay volume is 30 μM) in assay buffer and the resulting mixture was incubated for a reaction time of 30 min at 22° C. The concentration of CSNK1G3 was adjusted depending of the activity of the enzyme lot and was chosen appropriate to have the assay in the linear range, a typical concentration is about 0.06 ng/μL. The reaction was stopped by the addition of 2.5 μL of “ADP-Glo-reagent” (1:1.5 fold diluted with water) and the resulting mixture was incubated at 22° C. for 1 h to convert the ATP not consumed in the kinase reaction completely to CAMP. Subsequently 2.5 μL of the “kinase detection reagent” (1.2 fold more concentrated than recommended by the producer) were added, the resulting mixture was incubated at 22° C. for 1 h and then the luminescence measured with a suitable measurement instrument (e.g. Viewlux™ from Perkin-Elmer). The amount of emitted light was taken as a measure for the amount of ADP generated and thereby for the activity of the CSNK1G3.
as §2

[1] = Solubility assay (thermodynamic solubility); type: physicochemical; details: aqueous buffer; for solubility thermodynamic at 24 h: thermodynamic from solid, mean
Protocol: Solubility of solid compound in aqueous buffer was determined by an equilibrium shake flask method. A saturated solution of drug in solvent (˜2 mg/ml solvent) was prepared and the solution was mixed for 24 h to ensure that equilibrium has been reached. The solution was centrifuged to remove the insoluble fraction and the concentration of the compound in solution was determined by HPLC-UV using a standard calibration curve (Kerns, E. H. et al., Solubility Methods in: Drug-like Properties: Concepts, Structure Design and Methods, p 276-286. Burlington, MA: Academic Press 2008).

[2] = read-out: Thermodynamic Solubility [mg/l] (mean)
[3] = read-out: Thermodynamic Solubility [μmol/L] (mean)

Sequence of human CSNK1A1 (P48729 whole entry): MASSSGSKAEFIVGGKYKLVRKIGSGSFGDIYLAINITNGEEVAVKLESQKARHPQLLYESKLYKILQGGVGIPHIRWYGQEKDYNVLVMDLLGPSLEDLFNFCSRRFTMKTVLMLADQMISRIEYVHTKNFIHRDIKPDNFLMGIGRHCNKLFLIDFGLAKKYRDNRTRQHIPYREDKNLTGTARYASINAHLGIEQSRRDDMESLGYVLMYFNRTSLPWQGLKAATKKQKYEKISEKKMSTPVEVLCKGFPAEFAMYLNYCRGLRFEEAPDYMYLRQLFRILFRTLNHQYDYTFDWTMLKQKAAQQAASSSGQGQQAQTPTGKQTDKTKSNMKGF

An IC50 (human CSNK1A1) of 1.46 nM, an IC50 (human CSNK1G3) of 15.4 nM and a solubility thermodynamic at 24 h [1, 2] of 5.4 mg/L were found for `Cc1nc(C)c(CC(=O)Nc2cc(-c3[nH]c4cccnc4c3-c3ccccn3)ccn2)s1` [Example 18, 2-(2,4-dimethylthiazol-5-yl)-N-[4-[3-(2-pyridyl)-^1H-pyrrolo[3,2-b]pyridin-2-yl]-2-pyridyl]acetamide] in this work. It also gave a solubility thermodynamic at 24 h [1, 3] of 12.3 µmol/L.

An IC50 (human CSNK1A1) of 6.82 nM, an IC50 (human CSNK1G3) of 62.7 nM and a solubility thermodynamic at 24 h [1, 2] of 84 mg/L were found for `Cn1cc(C(CC(F)F)C(=O)Nc2cc(-c3[nH]c4cccnc4c3-c3ccccn3)ccn2)cn1` (centres unmarked) [Example 19, 4,4-difluoro-2-(1-methylpyrazol-4-yl)-N-[4-[3-(2-pyridyl)-^1H-pyrrolo[3,2-b]pyridin-2-yl]-2-pyridyl]butanamide] in this work. The solubility thermodynamic at 24 h [1, 3] was 177 µmol/L.

An IC50 (human CSNK1A1) of 1.88 nM, an IC50 (human CSNK1G3) of 14.8 nM and a solubility thermodynamic at 24 h [1, 2] of 23.9 mg/L were found for `O=C(Cc1ccn(CC(F)(F)F)n1)Nc1cc(-c2[nH]c3cccnc3c2-c2ccccn2)ccn1` [Example 20, N-[4-[3-(2-pyridyl)-^1H-pyrrolo[3,2-b]pyridin-2-yl]-2-pyridyl]-2-[1-(2,2,2-trifluoroethyl)pyrazol-3-yl]acetamide] in this work. For the same compound, the solubility thermodynamic at 24 h [1, 3] was 50.1 µmol/L.

An IC50 (human CSNK1A1) of 1.62 nM, an IC50 (human CSNK1G3) of 29.7 nM and a solubility thermodynamic at 24 h [1, 2] of less than 0.1 mg/L were found for `Cn1nc(CC(=O)Nc2cc(-c3[nH]c4cccnc4c3-c3ccccn3)ccn2)cc1C(F)(F)F` [Example 21, 2-[1-methyl-5-(trifluoromethyl)pyrazol-3-yl]-N-[4-[3-(2-pyridyl)-^1H-pyrrolo[3,2-b]pyridin-2-yl]-2-pyridyl]acetamide] in this work. For the same compound, the solubility thermodynamic at 24 h [1, 3] was less than 0.21 µmol/L.

An IC50 (human CSNK1A1) of 1.47 nM, an IC50 (human CSNK1G3) of 27 nM and a solubility thermodynamic at 24 h [1, 2] of 12.6 mg/L were found for `O=C(Cc1ccns1)Nc1cc(-c2[nH]c3cccnc3c2-c2ccccn2)ccn1` [Example 22, 2-isothiazol-5-yl-N-[4-[3-(2-pyridyl)-^1H-pyrrolo[3,2-b]pyridin-2-yl]-2-pyridyl]acetamide] in this work. For the same compound, the solubility thermodynamic at 24 h [1, 3] was 30.6 µmol/L.

An IC50 (human CSNK1A1) of 1.42 nM, an IC50 (human CSNK1G3) of 27.3 nM and a solubility thermodynamic at 24 h [1, 2] of 59.5 mg/L were found for `O=C(Cc1ccno1)Nc1cc(-c2[nH]c3cccnc3c2-c2ccccn2)ccn1` [Example 23, 2-isoxazol-5-yl-N-[4-[3-(2-pyridyl)-^1H-pyrrolo[3,2-b]pyridin-2-yl]-2-pyridyl]acetamide] in this work. It also gave a solubility thermodynamic at 24 h [1, 3] of 150 µmol/L.

An IC50 (human CSNK1A1) of 1.95 nM, an IC50 (human CSNK1G3) of 39.9 nM and a solubility thermodynamic at 24 h [1, 2] of 26.3 mg/L were found for `Cc1ncc(CC(=O)Nc2cc(-c3[nH]c4cccnc4c3-c3ccccn3)ccn2)o1` [Example 24, 2-(2-methyloxazol-5-yl)-N-[4-[3-(2-pyridyl)-^1H-pyrrolo[3,2-b]pyridin-2-yl]-2-pyridyl]acetamide] in this work. For the same compound, the solubility thermodynamic at 24 h [1, 3] was 64.1 µmol/L.

An IC50 (human CSNK1A1) of 2.79 nM, an IC50 (human CSNK1G3) of 64.4 nM and a solubility thermodynamic at 24 h [1, 2] of 23.1 mg/L were found for `Cc1nc(CC(=O)Nc2cc(-c3[nH]c4cccnc4c3-c3ccccn3)ccn2)co1` [Example 25, 2-(2-methyloxazol-4-yl)-N-[4-[3-(2-pyridyl)-^1H-pyrrolo[3,2-b]pyridin-2-yl]-2-pyridyl]acetamide] in this work. It also gave a solubility thermodynamic at 24 h [1, 3] of 56.3 µmol/L.

An IC50 (human CSNK1A1) of 2.03 nM, an IC50 (human CSNK1G3) of 26.5 nM and a solubility thermodynamic at 24 h [1, 2] of 6.1 mg/L were found for `Cc1cc(CC(=O)Nc2cc(-c3[nH]c4cccnc4c3-c3ccccn3)ccn2)no1` [Example 26, 2-(5-methylisoxazol-3-yl)-N-[4-[3-(2-pyridyl)-^1H-pyrrolo[3,2-b]pyridin-2-yl]-2-pyridyl]acetamide] in this work. For the same compound, the solubility thermodynamic at 24 h [1, 3] was 14.9 µmol/L.

An IC50 (human CSNK1A1) of 1.57 nM, an IC50 (human CSNK1G3) of 19.7 nM and a solubility thermodynamic at 24 h [1, 2] of less than 0.1 mg/L were found for `O=C(Cc1cc(C2CC2)on1)Nc1cc(-c2[nH]c3cccnc3c2-c2ccccn2)ccn1` [Example 27, 2-(5-cyclopropylisoxazol-3-yl)-N-[4-[3-(2-pyridyl)-^1H-pyrrolo[3,2-b]pyridin-2-yl]-2-pyridyl]acetamide] in this work. The solubility thermodynamic at 24 h [1, 3] was less than 0.23 µmol/L.

An IC50 (human CSNK1A1) of 2.28 nM, an IC50 (human CSNK1G3) of 20.4 nM and a solubility thermodynamic at 24 h [1, 2] of less than 0.1 mg/L were found for `CC(C)n1ccc(CC(=O)Nc2cc(-c3[nH]c4cccnc4c3-c3ccccn3)ccn2)n1` [Example 28, 2-(1-isopropylpyrazol-3-yl)-N-[4-[3-(2-pyridyl)-^1H-pyrrolo[3,2-b]pyridin-2-yl]-2-pyridyl]acetamide] in this work. It also gave a solubility thermodynamic at 24 h [1, 3] of less than 0.23 µmol/L.

An IC50 (human CSNK1A1) of 2.21 nM, an IC50 (human CSNK1G3) of 27.4 nM and a solubility thermodynamic at 24 h [1, 2] of less than 0.1 mg/L were found for `Cn1nc(CC(=O)Nc2cc(-c3[nH]c4cccnc4c3-c3ccccn3)ccn2)cc1C1CC1` [Example 29, 2-(5-cyclopropyl-1-methyl-pyrazol-3-yl)-N-[4-[3-(2-pyridyl)-^1H-pyrrolo[3,2-b]pyridin-2-yl]-2-pyridyl]acetamide] in this work. The solubility thermodynamic at 24 h [1, 3] was less than 0.22 µmol/L.

An IC50 (human CSNK1A1) of 2.62 nM, an IC50 (human CSNK1G3) of 68.9 nM and a solubility thermodynamic at 24 h [1, 2] of 5.8 mg/L were found for `Cc1nocc1CC(=O)Nc1cc(-c2[nH]c3cccnc3c2-c2ccccn2)ccn1` [Example 30, 2-(3-methylisoxazol-4-yl)-N-[4-[3-(2-pyridyl)-^1H-pyrrolo[3,2-b]pyridin-2-yl]-2-pyridyl]acetamide] in this work. It also gave a solubility thermodynamic at 24 h [1, 3] of 14.1 µmol/L.

For `O=C(Nc1cc(-c2[nH]c3nccnc3c2-c2ccccn2)ccn1)[C@@H](CC(F)F)c1ccc(F)cc1` [Example C1, reference compound], the IC50 (human CSNK1A1) was 1.25 nM, the IC50 (human CSNK1G3) was 6.54 nM and the “Thermodynamic Solubility [mg/l] (mean)” value ([1]; 24 h) was 9.60 mg/L. The “Thermodynamic Solubility [μmol/L] (mean)” value ([1]; 24 h) was 21.55 µmol/L.
